From patent publication EP4706646A1, “NOVEL DOUBLE-STRANDED SIRNA, CONJUGATE THEREOF, AND USE THEREOF” (priority 2023, dated 2024)
Where two headings read alike, the source gives them in different places.

Key:
hepatitis B virus (HBV) = assay: Anti-HBV activity in the PHH in vitro infection model (transfection or free uptake); format: cell-based, HBV serotype D; conditions: for EC50: PHH infected with HBV serotype D, supernatant Day 8
Procedure: Transfection and Drug Dosing: On Day 0, revived PHH were adjusted to an appropriate density (6.67E+05 cells/ml) and seeded into 48-well cell culture plates at 1.32E+05 cells per well. On Day 1, HBV serotype D was added to infect PHH (800 GE/cell). On Day 2, fresh medium was replaced. On Day 4, the cell culture medium was discarded, and the test compound was serially diluted to the required concentration, which were then introduced into the cells via transfection using Lipofectamine™ RNAiMAX. The starting concentration of the test compound was 500 pM, and 5-fold dilutions were performed. Seven concentrations were set up in duplicate, with wells containing only the transfection reagent as the medium control. Four to five hours after transfection, fresh medium without compound was replaced. The final DMSO concentration in the medium was 2%. On Day 6, fresh medium without compound was replaced. On Day 8, cell supernatants were harvested, and cell viability was assessed using CCK-8 assay.
Drug Administration via Ad libitum uptake : On day 0, the test compound was diluted to the desired concentration in enzyme-free water, starting at 500 nM. Five-fold dilutions were performed, each with seven concentrations, in duplicate, with 22 µl added to each well of the cell culture plate. Thawed frozen PHHs were plated to an appropriate density (6.67E+05 cells/ml), with 1.32E+05 cells per well. The cells were then plated and allowed to ad libitum uptake of the test compound. On day 1, the medium was changed, and the PHHs were infected with HBV serotype D (800 GE/cell). On day 2, fresh medium was replaced without virus or test compound. The final DMSO concentration in the medium was 2%. On Day 4 and 6, fresh medium without test compound was replaced. On Day 8, cell supernatants were harvested, and cell viability was assessed using CCK-8 assay.
Sample testing: qPCR was used to detect the HBV DNA content in the cell culture supernatant; ELISA was used to detect the HBsAg and HBeAg content in the cell culture supernatant. The experimental results of the double-stranded siRNA conjugate of the present invention reducing the levels of HBsAg, HBeAg and DNA in cells are shown in Table 3. Table 3: Experimental results of the double-stranded siRNA conjugates of the present invention in reducing the levels of HBsAg, HBeAg and DNA in cells

Hepatitis B virus [1] = assay: HBV-Tg transgenic mouse experiment, serum HBsAg and HBeAg; format: in vivo, HBV-Tg transgenic mice, C57B/6N-Tg(1.28HBV)/Vst; conditions: 3 mg/kg, single subcutaneous dose
Description: Experimental Animals: HBV-Tg transgenic mice, C57B/6N-Tg(1.28HBV)/Vst, SPF-grade males, 6-8 weeks old, weighing 16-20 g, were purchased from Beijing Vitalstar Biotechnology Co.,Ltd., Animal Production Certificate No.: SCXK(Beijing)2019-0002. Animals were housed individually in individual cages by Beijing Vitalstar Biotechnology Co.,Ltd.
Animal Grouping: Based on the quantitative results of serum HBsAg (primary) and HBeAg (secondary), animals were stratified and randomly divided into groups, with 5 animals per group.
(§1) Test Sample Preparation and Administration: The required dosage of drug powder was calculated based on the purity of each test sample. At a dosing concentration of 0.6 mg/mL, the corresponding saline solution was added and mixed by vortexing until a colorless, transparent liquid was obtained. The day of the first administration was defined as Day 0. All groups received a single subcutaneous dose of 5 mL/kg on Day 0. If blood sampling was required on the day of dosing, it was performed after blood collection.
Main Outcome Measures: Animals were weighed and blood was collected once on Days 3, 7, 14, 21, 28 and 35. Serum was separated for HBsAg and HBeAg level determination.
(§2) Serum HBsAg and HBeAg Level Determination: After blood collection, serum was separated, diluted with PBS, and submitted for analysis. From each sample, 10 µL of serum was removed and diluted to 500 µL (50-fold dilution) with PBS. Serum HBsAg and HBeAg levels were measured using a Hepatitis B e Antigen Assay Kit (Mike Biotech) and a Hepatitis B Surface Antigen Assay Kit (Mike Biotech), respectively.

Hepatitis B virus [2] = assay: Hepatitis B virus AAV mouse experiment, serum HBsAg and HBeAg; format: in vivo, rAAV8-1.3HBV/C57BL/6 Mouse; conditions: 3 mg/kg, single subcutaneous dose
Description: Preparation and Grouping of rAAV8-1.3HBV/C57BL/6 Mouse Model: A persistent HBV infection mouse model was established by tail vein injection of rAAV8-1.3HBV (strain C) into C57 mice. The AAV virus injection dose was 1E+11 vg/mouse. Six weeks after injection, blood samples were collected for analysis of serum HBeAg, HBsAg and ALT levels. Based on the quantitative results of serum HBsAg (primary) and HBeAg (secondary), 35 mice were randomly divided into stratified groups, with 5 mice per group.
as §1, with “collection. Main Outcome Measures: Mice were weighed and blood was collected once on Days 3, 7, 14, 21 and 28. Serum was separated for HBsAg and HBeAg level determination.” for “collection.”
as §2, with “Kit” for “Kit (Mike Biotech)”, “Kit,” for “Kit (Mike Biotech),”

[3] = No transfection (ad libitum uptake, Day 0), ELISA, read-out: Experimental results EC50 HBeAg
[4] = No transfection (ad libitum uptake, Day 0), ELISA, read-out: Experimental results EC50 HBsAg
[5] = No transfection (ad libitum uptake, Day 0), qPCR, read-out: Experimental results EC50 DNA
[6] = compared with vehicle control group

| Substance | EC50 (hepatitis B virus (HBV); [3]) | EC50 (hepatitis B virus (HBV); [4]) | EC50 (hepatitis B virus (HBV); [5]) | EC50 (hepatitis B virus (HBV); Transfection (RNAiMAX, Day 4), ELISA, read-out: Experimental results EC50 HBeAg) | EC50 (hepatitis B virus (HBV); Transfection (RNAiMAX, Day 4), ELISA, read-out: Experimental results EC50 HBsAg) | EC50 (hepatitis B virus (HBV); Transfection (RNAiMAX, Day 4), qPCR, read-out: Experimental results EC50 DNA) | inhibitory activity against HBsAg, HBeAg and DNA (hepatitis B virus (HBV); statement in words on Table 3) | inhibitory activity against HBsAg, HBeAg and DNA compared with control S148 (hepatitis B virus (HBV); without transfection) | inhibitory activity on HBsAg compared with control DAW30025 (S149) (Hepatitis B virus [1]; Figure 1) | inhibitory effect on reducing HBeAg (Hepatitis B virus [1]; [6]) | inhibitory effects on HBsAg (Hepatitis B virus [1]; compared with vehicle control group, Figure 1) | inhibitory activity against HBsAg compared with controls DAW30025 (S149) and DAW30336 (S151) (Hepatitis B virus [2]; Figure 2) | inhibitory effect on reducing HBeAg (Hepatitis B virus [2]; [6]) | inhibitory effects on HBsAg (Hepatitis B virus [2]; compared with vehicle control group, Figure 2) |
| --- | --- | --- | --- | --- | --- | --- | --- | --- | --- | --- | --- | --- | --- | --- |
| S146: double-stranded siRNA conjugate; sense strand-conjugation group SEQ ID NO 21, antisense SEQ ID NO 27 u•G•ugaAYCGaaguGcAcac•u•u (sense GUGUGCACUUCGCUUCYCA; antisense UGUGAAYCGAAGUGCACACUU; conjugation group on sense strand, modifications, key not given here; listed as Albies alba) | 2.24 nM | 0.782 nM | 0.737 nM | 0.209 nM | 0.05 nM | 0.082 nM | good inhibitory activity | significantly better than that of the control S148 | significantly superior to that of the control group | a certain inhibitory effect | significant inhibitory effects |  |  |  |
| S147: double-stranded siRNA conjugate; sense strand-conjugation group SEQ ID NO 41, antisense SEQ ID NO 27 u•G•ugaAYCGaaguGcAcac•u•u (sense GUGUGCACUUCGCUUYACA; antisense UGUGAAYCGAAGUGCACACUU; conjugation group on sense strand, modifications, key not given here; listed as Albies alba) |  |  |  |  |  |  |  |  |  |  |  | significantly better than that of the controls | a certain inhibitory effect | significant inhibitory effects |
| S148: control double-stranded siRNA conjugate; sense strand-conjugation group SEQ ID NO 42, antisense SEQ ID NO 33 (sense GUGUGCACUUCGCUUCACA; antisense TGTGAAGCGAAGTGCACACTT; conjugation group on sense strand, position not given here; listed as Albies alba) [reference compound] | 7.42 nM | 2.9 nM | 5.72 nM |  |  |  |  |  |  |  |  |  |  |  |
